Where “and” joins values, the source holds several entries; their conditions need not be identical. Equal values may be shown once.
Each compound was assayed against T1, Chymase (Homo sapiens, UniProt P23946) (assay: In vitro Assay for Inhibition of Chymase). Conditions: 500 pM chymase, 100 nM rhodamine 110 peptide substrate, 1 hour at 28° C., fluorescence.
T1 sequence (P23946 22-247): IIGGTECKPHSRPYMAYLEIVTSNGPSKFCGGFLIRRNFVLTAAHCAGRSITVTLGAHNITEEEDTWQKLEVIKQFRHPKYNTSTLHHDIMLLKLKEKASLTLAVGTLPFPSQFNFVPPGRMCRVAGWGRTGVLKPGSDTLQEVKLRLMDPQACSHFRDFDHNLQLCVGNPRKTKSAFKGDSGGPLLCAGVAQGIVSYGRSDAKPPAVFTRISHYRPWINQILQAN
Type: biochemical
Experimental: In vitro Assay for Inhibition of Chymase
Chymase assays were performed in a total volume of 15 μL in Corning black opaque 384-well microtiter plates with a non-binding surface (Coming, N.Y.). The assay buffer was comprised of 20 mM Tris HCl pH 8.0, 50 mM NaCl, 0.01% CHAPS. The test compounds were serially diluted 3-fold with neat DMSO in a 96-well polypropylene plate from a 10 mM DMSO stock to give the 10 point dose response curve. 3 μL of the resulting DMSO solution were transferred to a 384-well polypropylene plate in duplicate, and 37 μL of assay buffer was added. Chymase was added to the assay plate in 3 uL of assay buffer followed by 2 uL of the appropriate compound dilution using a PlateMate Plus (Matrix Technologies Corp., Hudson, N.H.). The reaction was initiated by the addition of 10 uL rhodamine 110, bis-(succinoyl-L-alanyl-L-alanyl-L-prolyl-L-phenylalanylamide) (American Peptides, Sunnyvale, Calif.) in assay buffer containing 150 μM tris(2-carboxyethyl)phosphine (TCEP, Pierce Chemical, Rockford, Ill.) using a Multidrop (Thermo Electron Corp., Waltham, Mass.). Final assay concentrations were 500 pM chymase, 100 nM substrate, 100 μM TCEP, and 1% DMSO. The plates were incubated at 28° C. and 80% humidity for 1 hour, at which time the fluorescence was read on a Viewlux 1430 Microplate Imager (Perkin Elmer Life Sciences, Boston, Mass.) with 485 nm excitation, 530 nm emission, and a fluorescein dichroic mirror. The percentage of control values were calculated relative to assay blanks containing complete reaction minus chymase and a 100% control containing assay buffer with 1% DMSO in place of compound. IC50 values were obtained by fitting the data using XLFit4 (IDBS Software).

| IC50 | Compound |
| --- | --- |
| 3 nM | Cc1cccc2c1c(Cn1c(=O)n(CC3(C(=O)O)CCCCC3)c(=O)c3ccccc31)cn2C [1-[1-(1,4-Dimethyl-1H-indol-3-ylmethyl)-2,4-dioxo-1,4-dihydro-2H-quinazolin-3-ylmethyl]-cyclohexanecarboxylic acid] |
| 4 nM | CCC(C(=O)O)n1c(=O)c2ccccc2n(Cc2cn(C)c3cccc(C)c23)c1=O (stereo not shown) [2-[1-(1,4-Dimethyl-1H-indol-3-ylmethyl)-2,4-dioxo-1,4-dihydro-2H-quinazolin-3-yl]-butyric acid] |
| 3 nM | CCCCC(C(=O)O)n1c(=O)c2ccccc2n(Cc2cn(C)c3cccc(C)c23)c1=O (stereo not shown) [2-[1-(1,4-Dimethyl-1H-indol-3-ylmethyl)-2,4-dioxo-1,4-dihydro-2H-quinazolin-3-yl]-hexanoic acid] |
| 4 nM | CCCC(C(=O)O)n1c(=O)c2ccccc2n(Cc2cn(C)c3cccc(C)c23)c1=O (stereo not shown) [2-[1-(1,4-Dimethyl-1H-indol-3-ylmethyl)-2,4-dioxo-1,4-dihydro-2H-quinazolin-3-yl]-pentanoic acid] |
| 4 nM | CCCCC(CC(=O)O)n1c(=O)c2ccccc2n(Cc2cn(C)c3cccc(C)c23)c1=O (stereo not shown) [3-[1-(1,4-Dimethyl-1H-indol-3-ylmethyl)-2,4-dioxo-1,4-dihydro-2H-quinazolin-3-yl]-heptanoic acid] |
| 2 nM | CCC(CC(=O)O)n1c(=O)c2ccccc2n(Cc2nsc3cc(C)cc(C)c23)c1=O (stereo not shown) [3-[1-(4,6-Dimethyl-1,2-benzisothiazol-3-ylmethyl)-2,4-dioxo-1,4-dihydro-2H-quinazolin-3-yl]-pentanoic acid] |
| 3 nM | Cc1cccc2c1c(Cn1c(=O)n(CC(CC(=O)O)c3ccccc3)c(=O)c3ccccc31)cn2C (stereo not shown) [4-[1-(1,4-Dimethyl-1H-indol-3-ylmethyl)-2,4-dioxo-1,4-dihydro-2H-quinazolin-3-yl]-3-phenyl-butyric acid] |
| 1.4 nM | CC[C@H](C(=O)O)n1c(=O)c2ccccc2n(Cc2cn(C)c3cccc(C)c23)c1=O [(R)-2-[1-(1,4-Dimethyl-1H-indol-3-ylmethyl)-2,4-dioxo-1,4-dihydro-2H-quinazolin-3-yl]-butyric acid] |
| 3 nM and 0.8 nM | CCCC[C@H](C(=O)O)n1c(=O)c2ccccc2n(Cc2cn(C)c3cccc(C)c23)c1=O [(R)-2-[1-(1,4-Dimethyl-1H-indol-3-ylmethyl)-2,4-dioxo-1,4-dihydro-2H-quinazolin-3-yl]-hexanoic acid] |
| 1.9 nM | Cc1cccc2c1c(Cn1c(=O)n([C@H](C)C(=O)O)c(=O)c3ccccc31)cn2C [(R)-2-[1-(1,4-Dimethyl-1H-indol-3-ylmethyl)-2,4-dioxo-1,4-dihydro-2H-quinazolin-3-yl]-propionic acid] |
| 1.6 nM | CCCC[C@H](C(=O)O)n1c(=O)c2cc(OC)ccc2n(Cc2cn(C)c3cccc(C)c23)c1=O [(R)-2-[1-(1,4-Dimethyl-1H-indol-3-ylmethyl)-6-methoxy-2,4-dioxo-1,4-dihydro-2H-quinazolin-3-yl]-hexanoic acid] |
| 3 nM | CCCC[C@H](C(=O)O)n1c(=O)c2ccccc2n(Cc2nsc3cc(C)cc(C)c23)c1=O [(R)-2-[1-(4,6-Dimethyl-1,2-benzisothiazol-3-ylmethyl)-2,4-dioxo-1,4-dihydro-2H-quinazolin-3-yl]-hexanoic acid] |
| 0.27 nM | CCC[C@H](C(=O)O)n1c(=O)c2ccccc2n(Cc2cn(C)c3cc(C)cc(C)c23)c1=O [(R)-2-[2,4-Dioxo-1-(1,4,6-trimethyl-1H-indol-3-ylmethyl)-1,4-dihydro-2H-quinazolin-3-yl]-pentanoic acid] |
| 1 nM | Cc1cccc2c1c(Cn1c(=O)n([C@H](CC(=O)O)c3ccccc3)c(=O)c3ccccc31)cn2C [(R)-3-[1-(1,4-Dimethyl-1H-indol-3-ylmethyl)-2,4-dioxo-1,4-dihydro-2H-quinazolin-3-yl]-3-phenyl-propionic acid] |
| 3.9 nM | CC[C@H](CC(=O)O)n1c(=O)c2ccccc2n(Cc2cn(C)c3cccc(C)c23)c1=O [(R)-3-[1-(1,4-Dimethyl-1H-indol-3-ylmethyl)-2,4-dioxo-1,4-dihydro-2H-quinazolin-3-yl]-pentanoic acid] |
| 1 nM | Cc1cccc2c1c(Cn1c(=O)n([C@@H](C(=O)O)c3ccccc3)c(=O)c3ccccc31)cn2C [(R)-[1-(1,4-Dimethyl-1H-indol-3-ylmethyl)-2,4-dioxo-1,4-dihydro-2H-quinazolin-3-yl]-phenyl-acetic acid] |

| IC50 | Compound |
| --- | --- |
| 1.8 nM | Cc1cc(C)c2c(Cn3c(=O)n([C@@H](C(=O)O)c4ccccc4)c(=O)c4ccccc43)nsc2c1 [(R)-[1-(4,6-Dimethyl-1,2-benzisothiazol-3-ylmethyl)-2,4-dioxo-1,4-dihydro-2H-quinazolin-3-yl]-phenyl-acetic acid] |
| 1.7 nM | CC[C@@H](C(=O)O)n1c(=O)c2ccccc2n(Cc2cn(C)c3cccc(C)c23)c1=O [(S)-2-[1-(1,4-Dimethyl-1H-indol-3-ylmethyl)-2,4-dioxo-1,4-dihydro-2H-quinazolin-3-yl]-butyric acid] |
| 2 nM | CCCC[C@@H](C(=O)O)n1c(=O)c2ccccc2n(Cc2cn(C)c3cccc(C)c23)c1=O [(S)-2-[1-(1,4-Dimethyl-1H-indol-3-ylmethyl)-2,4-dioxo-1,4-dihydro-2H-quinazolin-3-yl]-hexanoic acid] |
| 1.5 nM | CCC[C@@H](C(=O)O)n1c(=O)c2ccccc2n(Cc2cn(C)c3cccc(C)c23)c1=O [(S)-2-[1-(1,4-Dimethyl-1H-indol-3-ylmethyl)-2,4-dioxo-1,4-dihydro-2H-quinazolin-3-yl]-pentanoic acid] |
| 2.5 nM | Cc1cccc2c1c(Cn1c(=O)n([C@@H](C)C(=O)O)c(=O)c3ccccc31)cn2C [(S)-2-[1-(1,4-Dimethyl-1H-indol-3-ylmethyl)-2,4-dioxo-1,4-dihydro-2H-quinazolin-3-yl]-propionic acid] |
| 2.6 nM | CCCC[C@@H](C(=O)O)n1c(=O)c2cc(OC)ccc2n(Cc2cn(C)c3cccc(C)c23)c1=O [(S)-2-[1-(1,4-Dimethyl-1H-indol-3-ylmethyl)-6-methoxy-2,4-dioxo-1,4-dihydro-2H-quinazolin-3-yl]-hexanoic acid] |
| 4.9 nM | CCCC[C@@H](C(=O)O)n1c(=O)c2ccc(OC)cc2n(Cc2cn(C)c3cccc(C)c23)c1=O [(S)-2-[1-(1,4-Dimethyl-1H-indol-3-ylmethyl)-7-methoxy-2,4-dioxo-1,4-dihydro-2H-quinazolin-3-yl]-hexanoic acid] |
| 1.8 nM | CCCC[C@@H](C(=O)O)n1c(=O)c2cc(OC)ccc2n(Cc2nsc3cc(C)cc(C)c23)c1=O [(S)-2-[1-(4,6-Dimethyl-1,2-benzisothiazol-3-ylmethyl)-6-methoxy-2,4-dioxo-1,4-dihydro-2H-quinazolin-3-yl]-hexanoic acid] |
| 3.2 nM | CC[C@@H](CC(=O)O)n1c(=O)c2ccccc2n(Cc2cn(C)c3cccc(C)c23)c1=O [(S)-3-[1-(1,4-Dimethyl-1H-indol-3-ylmethyl)-2,4-dioxo-1,4-dihydro-2H-quinazolin-3-yl]-pentanoic acid] |
| 3.7 nM | CC[C@@H](CC(=O)O)n1c(=O)c2ccccc2n(Cc2nsc3cc(C)cc(C)c23)c1=O [(S)-3-[1-(4,6-Dimethyl-benzo[d]isothiazol-3-ylmethyl)-2,4-dioxo-1,4-dihydro-2H-quinazolin-3-yl]-pentanoic acid] |
| 0.92 nM | Cc1cc(C)c2c(Cn3c(=O)n([C@H](C(=O)O)c4ccc(Cl)cc4)c(=O)c4ccccc43)nsc2c1 [(S)-(4-Chloro-phenyl)-[1-(4,6-dimethyl-1,2-benzisothiazol-3-ylmethyl)-2,4-dioxo-1,4-dihydro-2H-quinazolin-3-yl]-acetic acid] |
| 2 nM | Cc1cccc2c1c(Cn1c(=O)n([C@H](C(=O)O)c3ccccc3)c(=O)c3ccccc31)cn2C [(S)-[1-(1,4-Dimethyl-1H-indol-3-ylmethyl)-2,4-dioxo-1,4-dihydro-2H-quinazolin-3-yl]-phenyl-acetic acid] |
| 1 nM | Cc1cc(C)c2c(Cn3c(=O)n([C@H](C(=O)O)c4ccccc4)c(=O)c4ccccc43)nsc2c1 [(S)-[1-(4,6-Dimethyl-1,2-benzisothiazol-3-ylmethyl)-2,4-dioxo-1,4-dihydro-2H-quinazolin-3-yl]-phenyl-acetic acid] |
| 3 nM | Cc1cccc2c1c(Cn1c(=O)n(C3(CC(=O)O)CCCCC3)c(=O)c3ccccc31)cn2C [{1-[1-(1,4-Dimethyl-1H-indol-3-ylmethyl)-2,4-dioxo-1,4-dihydro-2H-quinazolin-3-yl]-cyclohexyl}-acetic acid] |
| 3 nM | Cc1cccc2c1c(Cn1c(=O)n(CC3(CC(=O)O)CCCCC3)c(=O)c3ccccc31)cn2C [{1-[1-(1,4-Dimethyl-1H-indol-3-ylmethyl)-2,4-dioxo-1,4-dihydro-2H-quinazolin-3-ylmethyl]-cyclohexyl}-acetic acid] |
